How the values were obtained:
Experiment in all cases: relative viability (nuclei count vs DMSO), 5 days (fraction); higher = more cells survive
ABC-1 = system: ABC-1
Method in brief: (§1)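 Relative viability was taken as the ratio of nuclei in treated wells to nuclei in vehicle wells. Lung cancer cell lines in 1536-well plates received compounds by pin tool one day after seeding, either one drug alone or a fixed anchor-drug dose plus five library-drug doses (not always all listed) in √10 steps. Nuclei were counted on 4× images after 5 days of treatment, and values are medians of duplicate plates.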

EMC-BAC-2 = system: EMC-BAC-2
Method in brief: as §1

LCLC-97TM1 = system: LCLC-97TM1
Method in brief: as §1

NCI-H1355 = system: NCI-H1355
Method in brief: as §1

NCI-H1666 = system: NCI-H1666
Method in brief: as §1

NCI-H1755 = system: NCI-H1755
Method in brief: as §1

NCI-H1793 = system: NCI-H1793
Method in brief: as §1

NCI-H1944 = system: NCI-H1944
Method in brief: as §1

NCI-H1975 = system: NCI-H1975
Method in brief: as §1

NCI-H1993 = system: NCI-H1993
Method in brief: as §1

NCI-H2009 = system: NCI-H2009
Method in brief: as §1

NCI-H2126 = system: NCI-H2126
Method in brief: as §1

NCI-H2170 = system: NCI-H2170
Method in brief: as §1

NCI-H2347 = system: NCI-H2347
Method in brief: as §1

NCI-H441 = system: NCI-H441
Method in brief: as §1

NCI-H460 = system: NCI-H460
Method in brief: as §1

NCI-H520 = system: NCI-H520
Method in brief: as §1

NCI-H647 = system: NCI-H647
Method in brief: as §1

NCI-H727 = system: NCI-H727
Method in brief: as §1

PC-14 = system: PC-14
Method in brief: as §1

PC-3 [JPC-3] = system: PC-3 [JPC-3]
Method in brief: as §1

SK-LU-1 = system: SK-LU-1
Method in brief: as §1

SW 1573 = system: SW 1573
Method in brief: as §1

Question: Which relative viability (ABC-1; first compound 5 µM) does the source give for `O=C(O)CCCCC(CCSCc1ccccc1)SCc1ccccc1` (centres undefined) [CPI-613] + Cc1nc(Nc2ncc(C(=O)Nc3c(C)cccc3Cl)s2)cc(N2CCN(CCO)CC2)n1 [Dasatinib] (partner 0.075 µM) here?
Answer: 0.561

Question: And the relative viability (ABC-1; first compound 50 µM)?
Answer: 0.527

Question: And the relative viability (ABC-1; first compound 158.11 µM)?
Answer: 0.232

Question: And the relative viability (ABC-1; first compound 500 µM)?
Answer: 0.196

Question: What about the relative viability (EMC-BAC-2; first compound 5 µM) of the same molecule?
Answer: 0.303

Question: What about the relative viability (EMC-BAC-2; first compound 15.81 µM) of the same molecule?
Answer: 0.187

Question: What about the relative viability (EMC-BAC-2; first compound 50 µM) of the same molecule?
Answer: 0.309

Question: And the relative viability (EMC-BAC-2; first compound 158.11 µM)?
Answer: 0.206

Question: And the relative viability (EMC-BAC-2; first compound 500 µM)?
Answer: 0.0369

Question: What about the relative viability (LCLC-97TM1; first compound 5 µM) of the same molecule?
Answer: 0.843

Question: And the relative viability (LCLC-97TM1; first compound 15.81 µM)?
Answer: 0.901

Question: What about the relative viability (LCLC-97TM1; first compound 50 µM) of the same molecule?
Answer: 0.791

Question: And the relative viability (LCLC-97TM1; first compound 158.11 µM)?
Answer: 0.634

Question: And the relative viability (LCLC-97TM1; first compound 500 µM)?
Answer: 0.0334

Question: What about the relative viability (NCI-H1355; first compound 5 µM) of the same molecule?
Answer: 0.682

Question: And the relative viability (NCI-H1355; first compound 15.81 µM)?
Answer: 0.697

Question: What about the relative viability (NCI-H1355; first compound 50 µM) of the same molecule?
Answer: 0.701

Question: And the relative viability (NCI-H1355; first compound 158.11 µM)?
Answer: 0.53

Question: And the relative viability (NCI-H1355; first compound 500 µM)?
Answer: 0.375

Question: And the relative viability (NCI-H1666; first compound 5 µM)?
Answer: 0.808

Question: What about the relative viability (NCI-H1666; first compound 15.81 µM) of the same molecule?
Answer: 0.858

Question: What about the relative viability (NCI-H1666; first compound 50 µM) of the same molecule?
Answer: 0.749

Question: What about the relative viability (NCI-H1666; first compound 158.11 µM) of the same molecule?
Answer: 0.386

Question: What about the relative viability (NCI-H1666; first compound 500 µM) of the same molecule?
Answer: 0.18

Question: And the relative viability (NCI-H1755; first compound 5 µM)?
Answer: 0.406

Question: What about the relative viability (NCI-H1755; first compound 15.81 µM) of the same molecule?
Answer: 0.41

Question: And the relative viability (NCI-H1755; first compound 50 µM)?
Answer: 0.446

Question: And the relative viability (NCI-H1755; first compound 158.11 µM)?
Answer: 0.464

Question: What about the relative viability (NCI-H1755; first compound 500 µM) of the same molecule?
Answer: 0.225

Question: And the relative viability (NCI-H1793; first compound 5 µM)?
Answer: 0.327

Question: And the relative viability (NCI-H1793; first compound 15.81 µM)?
Answer: 0.317

Question: And the relative viability (NCI-H1793; first compound 50 µM)?
Answer: 0.421

Question: What about the relative viability (NCI-H1793; first compound 158.11 µM) of the same molecule?
Answer: 0.165

Question: What about the relative viability (NCI-H1793; first compound 500 µM) of the same molecule?
Answer: 0.018

Question: What about the relative viability (NCI-H1944; first compound 5 µM) of the same molecule?
Answer: 0.212

Question: And the relative viability (NCI-H1944; first compound 15.81 µM)?
Answer: 0.219

Question: And the relative viability (NCI-H1944; first compound 50 µM)?
Answer: 0.188

Question: What about the relative viability (NCI-H1944; first compound 158.11 µM) of the same molecule?
Answer: 0.19

Question: And the relative viability (NCI-H1944; first compound 500 µM)?
Answer: 0.0792

Question: And the relative viability (NCI-H1975; first compound 5 µM)?
Answer: 0.377

Question: What about the relative viability (NCI-H1975; first compound 15.81 µM) of the same molecule?
Answer: 0.331

Question: And the relative viability (NCI-H1975; first compound 50 µM)?
Answer: 0.347

Question: What about the relative viability (NCI-H1975; first compound 158.11 µM) of the same molecule?
Answer: 0.176

Question: What about the relative viability (NCI-H1975; first compound 500 µM) of the same molecule?
Answer: 0.111

Question: What about the relative viability (NCI-H1993; first compound 5 µM) of the same molecule?
Answer: 0.495

Question: And the relative viability (NCI-H1993; first compound 15.81 µM)?
Answer: 0.262

Question: What about the relative viability (NCI-H1993; first compound 50 µM) of the same molecule?
Answer: 0.605

Question: And the relative viability (NCI-H1993; first compound 158.11 µM)?
Answer: 0.522

Question: What about the relative viability (NCI-H1993; first compound 500 µM) of the same molecule?
Answer: 0.369

Question: And the relative viability (NCI-H2009; first compound 5 µM)?
Answer: 0.277

Question: What about the relative viability (NCI-H2009; first compound 15.81 µM) of the same molecule?
Answer: 0.264

Question: And the relative viability (NCI-H2009; first compound 50 µM)?
Answer: 0.278

Question: What about the relative viability (NCI-H2009; first compound 158.11 µM) of the same molecule?
Answer: 0.0869

Question: What about the relative viability (NCI-H2009; first compound 500 µM) of the same molecule?
Answer: 0.029

Question: What about the relative viability (NCI-H2126; first compound 5 µM) of the same molecule?
Answer: 0.561

Question: What about the relative viability (NCI-H2126; first compound 15.81 µM) of the same molecule?
Answer: 0.58

Question: And the relative viability (NCI-H2126; first compound 50 µM)?
Answer: 0.605

Question: What about the relative viability (NCI-H2126; first compound 158.11 µM) of the same molecule?
Answer: 0.331

Question: And the relative viability (NCI-H2126; first compound 500 µM)?
Answer: 0.107

Question: What about the relative viability (NCI-H2170; first compound 5 µM) of the same molecule?
Answer: 0.586

Question: And the relative viability (NCI-H2170; first compound 15.81 µM)?
Answer: 0.566

Question: And the relative viability (NCI-H2170; first compound 50 µM)?
Answer: 0.612

Question: What about the relative viability (NCI-H2170; first compound 158.11 µM) of the same molecule?
Answer: 0.461

Question: And the relative viability (NCI-H2170; first compound 500 µM)?
Answer: 0.167

Question: What about the relative viability (NCI-H2347; first compound 5 µM) of the same molecule?
Answer: 0.295

Question: And the relative viability (NCI-H2347; first compound 15.81 µM)?
Answer: 0.308

Question: And the relative viability (NCI-H2347; first compound 50 µM)?
Answer: 0.227

Question: What about the relative viability (NCI-H2347; first compound 158.11 µM) of the same molecule?
Answer: 0.315

Question: What about the relative viability (NCI-H2347; first compound 500 µM) of the same molecule?
Answer: 0.327

Question: What about the relative viability (NCI-H441; first compound 5 µM) of the same molecule?
Answer: 0.581

Question: And the relative viability (NCI-H441; first compound 15.81 µM)?
Answer: 0.52

Question: What about the relative viability (NCI-H441; first compound 50 µM) of the same molecule?
Answer: 0.484

Question: What about the relative viability (NCI-H441; first compound 158.11 µM) of the same molecule?
Answer: 0.3

Question: What about the relative viability (NCI-H441; first compound 500 µM) of the same molecule?
Answer: 0.044

Question: What about the relative viability (NCI-H460; first compound 5 µM) of the same molecule?
Answer: 0.54

Question: What about the relative viability (NCI-H460; first compound 15.81 µM) of the same molecule?
Answer: 0.454

Question: What about the relative viability (NCI-H460; first compound 50 µM) of the same molecule?
Answer: 0.572

Question: What about the relative viability (NCI-H460; first compound 158.11 µM) of the same molecule?
Answer: 0.334

Question: And the relative viability (NCI-H460; first compound 500 µM)?
Answer: 0.317

Question: What about the relative viability (NCI-H520; first compound 5 µM) of the same molecule?
Answer: 0.188

Question: And the relative viability (NCI-H520; first compound 15.81 µM)?
Answer: 0.17

Question: What about the relative viability (NCI-H520; first compound 50 µM) of the same molecule?
Answer: 0.202

Question: What about the relative viability (NCI-H520; first compound 158.11 µM) of the same molecule?
Answer: 0.168

Question: What about the relative viability (NCI-H520; first compound 500 µM) of the same molecule?
Answer: 0.149

Question: What about the relative viability (NCI-H647; first compound 5 µM) of the same molecule?
Answer: 0.197

Question: What about the relative viability (NCI-H647; first compound 15.81 µM) of the same molecule?
Answer: 0.144

Question: What about the relative viability (NCI-H647; first compound 50 µM) of the same molecule?
Answer: 0.146

Question: And the relative viability (NCI-H647; first compound 158.11 µM)?
Answer: 0.0387

Question: And the relative viability (NCI-H647; first compound 500 µM)?
Answer: 0.0112

Question: And the relative viability (NCI-H727; first compound 5 µM)?
Answer: 0.305

Question: And the relative viability (NCI-H727; first compound 15.81 µM)?
Answer: 0.35

Question: What about the relative viability (NCI-H727; first compound 50 µM) of the same molecule?
Answer: 0.329

Question: And the relative viability (NCI-H727; first compound 158.11 µM)?
Answer: 0.275

Question: What about the relative viability (NCI-H727; first compound 500 µM) of the same molecule?
Answer: 0.138

Question: What about the relative viability (PC-14; first compound 5 µM) of the same molecule?
Answer: 0.237

Question: And the relative viability (PC-14; first compound 15.81 µM)?
Answer: 0.232

Question: What about the relative viability (PC-14; first compound 50 µM) of the same molecule?
Answer: 0.247

Question: And the relative viability (PC-14; first compound 158.11 µM)?
Answer: 0.0644

Question: And the relative viability (PC-14; first compound 500 µM)?
Answer: 0.0134

Question: And the relative viability (PC-3 [JPC-3]; first compound 5 µM)?
Answer: 0.903

Question: And the relative viability (PC-3 [JPC-3]; first compound 15.81 µM)?
Answer: 0.948

Question: And the relative viability (PC-3 [JPC-3]; first compound 50 µM)?
Answer: 0.909

Question: What about the relative viability (PC-3 [JPC-3]; first compound 158.11 µM) of the same molecule?
Answer: 0.879

Question: What about the relative viability (PC-3 [JPC-3]; first compound 500 µM) of the same molecule?
Answer: 0.348

Question: And the relative viability (SK-LU-1; first compound 5 µM)?
Answer: 0.176

Question: What about the relative viability (SK-LU-1; first compound 15.81 µM) of the same molecule?
Answer: 0.18

Question: What about the relative viability (SK-LU-1; first compound 50 µM) of the same molecule?
Answer: 0.187

Question: What about the relative viability (SK-LU-1; first compound 158.11 µM) of the same molecule?
Answer: 0.151

Question: And the relative viability (SK-LU-1; first compound 500 µM)?
Answer: 0.0997

Question: What about the relative viability (SW 1573; first compound 5 µM) of the same molecule?
Answer: 0.452

Question: And the relative viability (SW 1573; first compound 15.81 µM)?
Answer: 0.503

Question: What about the relative viability (SW 1573; first compound 50 µM) of the same molecule?
Answer: 0.467

Question: And the relative viability (SW 1573; first compound 158.11 µM)?
Answer: 0.118

Question: And the relative viability (SW 1573; first compound 500 µM)?
Answer: 0.0385

From the supplement of paper PMC10307832
